Here are results for 3 compounds from ChEMBL document CHEMBL1909046, “DrugMatrix in vitro pharmacology data”.

As a reminder, the IC50 is the concentration at which inhibition is half-maximal. In general, Ki refers to a measure of affinity in units of concentration, obtained from inhibition or displacement.
Note: in other assays of this panel Not Active means under 50% inhibition at 10 µM.

Sequence of Histamine H2 receptor (P25021 whole entry): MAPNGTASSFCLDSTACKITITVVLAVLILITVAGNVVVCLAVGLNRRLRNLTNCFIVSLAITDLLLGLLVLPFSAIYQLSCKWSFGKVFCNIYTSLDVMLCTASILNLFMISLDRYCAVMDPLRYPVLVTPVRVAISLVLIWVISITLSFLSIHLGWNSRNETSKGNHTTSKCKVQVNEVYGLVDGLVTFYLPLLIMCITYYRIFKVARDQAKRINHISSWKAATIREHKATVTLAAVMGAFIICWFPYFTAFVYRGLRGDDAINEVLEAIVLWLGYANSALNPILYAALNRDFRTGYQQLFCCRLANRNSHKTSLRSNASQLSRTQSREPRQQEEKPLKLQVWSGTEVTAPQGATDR
Sequence of Receptor tyrosine-protein kinase erbB-2 (P04626 whole entry): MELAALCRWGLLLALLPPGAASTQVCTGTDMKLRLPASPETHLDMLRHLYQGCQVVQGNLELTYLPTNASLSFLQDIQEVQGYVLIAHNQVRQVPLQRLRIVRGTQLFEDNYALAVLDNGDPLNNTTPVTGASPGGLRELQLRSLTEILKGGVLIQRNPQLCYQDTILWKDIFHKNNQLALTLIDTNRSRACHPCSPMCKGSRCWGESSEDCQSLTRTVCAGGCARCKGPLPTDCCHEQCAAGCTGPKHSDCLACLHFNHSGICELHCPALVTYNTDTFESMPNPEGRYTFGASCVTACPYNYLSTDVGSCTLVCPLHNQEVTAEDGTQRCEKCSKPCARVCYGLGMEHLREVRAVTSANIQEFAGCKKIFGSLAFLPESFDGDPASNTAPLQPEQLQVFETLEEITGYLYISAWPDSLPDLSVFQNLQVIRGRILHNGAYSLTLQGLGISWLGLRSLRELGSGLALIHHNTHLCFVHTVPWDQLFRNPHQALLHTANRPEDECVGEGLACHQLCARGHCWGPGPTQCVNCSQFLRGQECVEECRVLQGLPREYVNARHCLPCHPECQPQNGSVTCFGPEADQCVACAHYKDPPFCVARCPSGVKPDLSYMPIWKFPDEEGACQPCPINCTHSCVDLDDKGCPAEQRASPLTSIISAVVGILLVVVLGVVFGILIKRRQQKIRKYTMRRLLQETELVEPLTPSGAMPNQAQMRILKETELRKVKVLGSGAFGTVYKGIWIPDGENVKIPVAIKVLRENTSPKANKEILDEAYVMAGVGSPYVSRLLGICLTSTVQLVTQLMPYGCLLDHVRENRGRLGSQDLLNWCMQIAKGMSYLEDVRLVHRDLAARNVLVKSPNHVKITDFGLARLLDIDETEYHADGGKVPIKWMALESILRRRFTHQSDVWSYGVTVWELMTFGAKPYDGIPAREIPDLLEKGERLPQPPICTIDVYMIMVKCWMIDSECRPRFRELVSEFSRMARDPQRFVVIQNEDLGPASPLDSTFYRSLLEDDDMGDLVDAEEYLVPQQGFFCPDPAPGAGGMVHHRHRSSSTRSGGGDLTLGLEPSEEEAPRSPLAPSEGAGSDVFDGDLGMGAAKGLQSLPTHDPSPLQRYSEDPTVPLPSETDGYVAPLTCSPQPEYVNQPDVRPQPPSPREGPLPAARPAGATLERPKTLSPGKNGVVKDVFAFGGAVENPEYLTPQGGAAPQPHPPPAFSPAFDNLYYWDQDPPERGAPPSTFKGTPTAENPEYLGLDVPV
Sequence of 5-hydroxytryptamine receptor 1B (P28564 whole entry): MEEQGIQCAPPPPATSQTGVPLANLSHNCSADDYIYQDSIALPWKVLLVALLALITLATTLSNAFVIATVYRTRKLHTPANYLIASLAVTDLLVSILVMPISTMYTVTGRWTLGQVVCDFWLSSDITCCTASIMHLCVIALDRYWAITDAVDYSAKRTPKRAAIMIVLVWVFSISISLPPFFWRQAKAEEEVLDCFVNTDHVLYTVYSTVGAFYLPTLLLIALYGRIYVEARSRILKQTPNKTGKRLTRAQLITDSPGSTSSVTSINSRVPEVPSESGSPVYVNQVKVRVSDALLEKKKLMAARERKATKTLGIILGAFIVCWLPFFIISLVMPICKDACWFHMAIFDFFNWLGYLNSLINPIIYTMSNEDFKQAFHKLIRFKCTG
Sequence of Melanocortin receptor 5 (P33032 whole entry): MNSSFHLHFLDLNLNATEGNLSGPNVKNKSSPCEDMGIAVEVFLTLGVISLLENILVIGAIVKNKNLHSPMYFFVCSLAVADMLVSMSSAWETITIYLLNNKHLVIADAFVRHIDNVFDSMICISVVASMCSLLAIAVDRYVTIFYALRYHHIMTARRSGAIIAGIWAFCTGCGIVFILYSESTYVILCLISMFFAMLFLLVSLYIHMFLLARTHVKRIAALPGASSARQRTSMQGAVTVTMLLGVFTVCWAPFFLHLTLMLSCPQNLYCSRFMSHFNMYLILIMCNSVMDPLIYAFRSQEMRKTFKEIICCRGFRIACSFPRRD

The first test concerns the target Melanocortin receptor 5 (Homo sapiens, UniProt P33032).
Assay: not given
In kind it is cell membranes, HEK293, Membrane. Particulars: hek293.
For `CC(C)(O)c1ccccc1CC[C@@H](SCC1(CC(=O)O)CC1)c1cccc(/C=C/c2ccc3ccc(Cl)cc3n2)c1` [MONTELUKAST], the IC50 entry is recorded as “Not Active”.
Still for that read-out and setting: the same measure for `CN(C)CCCN1c2ccccc2CCc2ccc(Cl)cc21` [CLOMIPRAMINE]: “Not Active”.

Still in this test, the particulars now being: read-out: IC50.
Turning to `COc1ccc(CCN2CCC(Nc3nc4ccccc4n3Cc3ccc(F)cc3)CC2)cc1` [ASTEMIZOLE], the IC50 was 2.26 µM.

The same test, now with this note: read-out: Ki.
Regarding `COc1ccc(CCN2CCC(Nc3nc4ccccc4n3Cc3ccc(F)cc3)CC2)cc1` [ASTEMIZOLE], the Ki was 2.12 µM.

The next test has as its target 5-hydroxytryptamine receptor 1B (Rattus norvegicus, UniProt P28564).
Assay: not given
In kind it is cell membranes, Wistar, Cerebral cortex, Membrane.
Conditions: not given
For the compound `CC(C)(O)c1ccccc1CC[C@@H](SCC1(CC(=O)O)CC1)c1cccc(/C=C/c2ccc3ccc(Cl)cc3n2)c1` [MONTELUKAST], the concentration for half-maximal inhibition (IC50) entry is on record as “Not Active”.
The same measure, in the same setting: the value for `CN(C)CCCN1c2ccccc2CCc2ccc(Cl)cc21` [CLOMIPRAMINE] was “Not Active”.

Still in this test, the particulars now being: read-out: IC50.
In the case of `COc1ccc(CCN2CCC(Nc3nc4ccccc4n3Cc3ccc(F)cc3)CC2)cc1` [ASTEMIZOLE], the IC50 came to 1.39 µM.

The test is the same for the next values; noted with them: read-out: Ki.
As for `COc1ccc(CCN2CCC(Nc3nc4ccccc4n3Cc3ccc(F)cc3)CC2)cc1` [ASTEMIZOLE], the Ki was determined as 0.63 µM.

The target of another test is Tyrosine-protein kinase Fyn (Homo sapiens, UniProt P06241). As to the kind of experiment: biochemical. Particulars: insect cells. In kind it is cell-based, Insect cells.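 Note: enzymatic inhibition of Fyn kinase activity measured with Poly(Glu:Tyr) as the phosphorylation substrate.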
Sequence of Tyrosine-protein kinase Fyn (P06241 whole entry): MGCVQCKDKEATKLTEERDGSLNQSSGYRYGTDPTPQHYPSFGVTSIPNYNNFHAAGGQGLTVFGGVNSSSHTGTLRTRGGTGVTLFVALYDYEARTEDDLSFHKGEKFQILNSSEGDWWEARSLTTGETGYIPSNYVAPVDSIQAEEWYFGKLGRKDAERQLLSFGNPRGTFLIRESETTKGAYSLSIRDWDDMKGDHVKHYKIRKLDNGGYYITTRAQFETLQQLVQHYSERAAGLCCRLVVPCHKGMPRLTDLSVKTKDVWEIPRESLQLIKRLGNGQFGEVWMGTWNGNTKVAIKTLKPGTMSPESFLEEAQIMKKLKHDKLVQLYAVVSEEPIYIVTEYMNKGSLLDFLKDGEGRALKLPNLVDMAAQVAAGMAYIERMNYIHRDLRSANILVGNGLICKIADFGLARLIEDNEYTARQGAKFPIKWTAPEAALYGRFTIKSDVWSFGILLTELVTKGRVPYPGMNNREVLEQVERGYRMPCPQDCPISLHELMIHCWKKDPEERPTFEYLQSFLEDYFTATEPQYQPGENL
As for `CN(C)CCCN1c2ccccc2CCc2ccc(Cl)cc21` [CLOMIPRAMINE], the IC50 result is reported as “Not Active”.

The test is the same for the next values; noted with them: read-out: IC50.
`CC(C)(O)c1ccccc1CC[C@@H](SCC1(CC(=O)O)CC1)c1cccc(/C=C/c2ccc3ccc(Cl)cc3n2)c1` [MONTELUKAST]: the IC50 was 4.7 µM.
With `COc1ccc(CCN2CCC(Nc3nc4ccccc4n3Cc3ccc(F)cc3)CC2)cc1` [ASTEMIZOLE], the IC50 stood at 2.85 µM.

In another test the target is T1, Caspase-1 (Homo sapiens, UniProt P29466).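 Note: Caspase-1 enzyme inhibition assay with a peptide substrate.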
T1 sequence (P29466 whole entry): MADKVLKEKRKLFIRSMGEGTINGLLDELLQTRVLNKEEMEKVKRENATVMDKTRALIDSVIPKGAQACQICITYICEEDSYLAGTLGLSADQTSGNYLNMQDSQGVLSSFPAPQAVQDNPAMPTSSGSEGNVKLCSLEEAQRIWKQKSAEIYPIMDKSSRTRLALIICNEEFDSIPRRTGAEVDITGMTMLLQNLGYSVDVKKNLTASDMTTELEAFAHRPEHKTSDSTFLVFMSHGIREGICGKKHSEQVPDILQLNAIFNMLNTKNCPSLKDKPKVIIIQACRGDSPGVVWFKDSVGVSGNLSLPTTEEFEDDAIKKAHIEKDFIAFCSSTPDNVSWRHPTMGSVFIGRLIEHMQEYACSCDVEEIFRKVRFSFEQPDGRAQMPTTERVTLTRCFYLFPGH
Assay: not given
Also noted: species or system Escherichia coli.
Conditions: not given
Consider `CC(C)(O)c1ccccc1CC[C@@H](SCC1(CC(=O)O)CC1)c1cccc(/C=C/c2ccc3ccc(Cl)cc3n2)c1` [MONTELUKAST], for which the IC50 result is listed as “Not Active”.
On the same count and under the same terms, the same measure for `COc1ccc(CCN2CCC(Nc3nc4ccccc4n3Cc3ccc(F)cc3)CC2)cc1` [ASTEMIZOLE]: “Not Active”; for `CN(C)CCCN1c2ccccc2CCc2ccc(Cl)cc21` [CLOMIPRAMINE]: “Not Active”.

The target in another test is Melanocortin receptor 3 (Homo sapiens, UniProt P41968).
Sequence of Melanocortin receptor 3 (P41968 whole entry): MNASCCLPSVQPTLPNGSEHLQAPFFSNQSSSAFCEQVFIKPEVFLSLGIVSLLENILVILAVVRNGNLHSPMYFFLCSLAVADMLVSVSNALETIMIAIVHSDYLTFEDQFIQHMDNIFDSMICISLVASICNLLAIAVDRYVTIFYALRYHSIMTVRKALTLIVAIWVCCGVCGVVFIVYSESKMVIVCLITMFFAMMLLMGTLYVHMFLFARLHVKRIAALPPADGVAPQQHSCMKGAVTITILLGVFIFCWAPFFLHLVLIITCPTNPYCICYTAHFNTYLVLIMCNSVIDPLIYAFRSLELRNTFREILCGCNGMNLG
Assay: not given
The note with it: hek293. In kind it is cell membranes, Membrane.
In the case of `CC(C)(O)c1ccccc1CC[C@@H](SCC1(CC(=O)O)CC1)c1cccc(/C=C/c2ccc3ccc(Cl)cc3n2)c1` [MONTELUKAST], the IC50 result is recorded as “Not Active”.
On the same count and under the same terms, the same measure for `CN(C)CCCN1c2ccccc2CCc2ccc(Cl)cc21` [CLOMIPRAMINE]: “Not Active”.

A further test addresses Receptor tyrosine-protein kinase erbB-2 (Homo sapiens, UniProt P04626). Kind of test: biochemical. In kind it is cell-based, Insect cells. Particulars: insect cells.
In the case of `CC(C)(O)c1ccccc1CC[C@@H](SCC1(CC(=O)O)CC1)c1cccc(/C=C/c2ccc3ccc(Cl)cc3n2)c1` [MONTELUKAST], the IC50 result is listed as “Not Active”.
On the same count and under the same terms, the value for `CN(C)CCCN1c2ccccc2CCc2ccc(Cl)cc21` [CLOMIPRAMINE] was “Not Active”.

The test is the same for the next values; noted with them: read-out: IC50.
Take `COc1ccc(CCN2CCC(Nc3nc4ccccc4n3Cc3ccc(F)cc3)CC2)cc1` [ASTEMIZOLE]: the IC50 was determined as 13.1 µM.

A further test has as its target Histamine H2 receptor (Homo sapiens, UniProt P25021).
Assay: not given
In kind it is cell membranes, CHO-K1, Membrane. The note with it: cho-k1.
For the compound `CC(C)(O)c1ccccc1CC[C@@H](SCC1(CC(=O)O)CC1)c1cccc(/C=C/c2ccc3ccc(Cl)cc3n2)c1` [MONTELUKAST], the IC50 result is “Not Active”.

The test is the same for the next values; noted with them: read-out: IC50.
For `CN(C)CCCN1c2ccccc2CCc2ccc(Cl)cc21` [CLOMIPRAMINE], the IC50 was 2.05 µM.

Staying with this test, now noted: read-out: Ki.
For `CN(C)CCCN1c2ccccc2CCc2ccc(Cl)cc21` [CLOMIPRAMINE], the Ki came to 2.02 µM.

Another test concerns the target T2, Muscarinic acetylcholine receptor M5 (Homo sapiens, UniProt P08912).
T2 sequence (P08912 whole entry): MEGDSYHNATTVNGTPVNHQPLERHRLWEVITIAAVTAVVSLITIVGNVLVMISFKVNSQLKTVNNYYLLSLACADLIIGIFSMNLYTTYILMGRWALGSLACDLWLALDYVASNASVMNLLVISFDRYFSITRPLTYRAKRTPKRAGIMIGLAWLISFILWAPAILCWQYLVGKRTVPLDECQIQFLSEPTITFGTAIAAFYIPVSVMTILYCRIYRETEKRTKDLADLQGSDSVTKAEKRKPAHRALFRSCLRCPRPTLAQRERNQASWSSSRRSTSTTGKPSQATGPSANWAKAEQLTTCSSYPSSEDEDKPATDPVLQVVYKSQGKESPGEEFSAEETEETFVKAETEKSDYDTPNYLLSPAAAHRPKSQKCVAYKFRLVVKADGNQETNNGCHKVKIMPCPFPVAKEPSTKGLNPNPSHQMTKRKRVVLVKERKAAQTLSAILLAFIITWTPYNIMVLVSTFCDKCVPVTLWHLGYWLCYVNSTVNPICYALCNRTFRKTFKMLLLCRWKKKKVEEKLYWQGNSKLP
Assay: not given
In kind it is cell membranes, CHO-K1, Membrane. Particulars: read-out: IC50.
In the case of `COc1ccc(CCN2CCC(Nc3nc4ccccc4n3Cc3ccc(F)cc3)CC2)cc1` [ASTEMIZOLE], the IC50 is 0.703 µM.
The same measure, in the same setting: the value for `CN(C)CCCN1c2ccccc2CCc2ccc(Cl)cc21` [CLOMIPRAMINE] was 0.053 µM.

The same test, now with this note: read-out: Ki.
Turning to `COc1ccc(CCN2CCC(Nc3nc4ccccc4n3Cc3ccc(F)cc3)CC2)cc1` [ASTEMIZOLE], the Ki turned out to be 0.505 µM.
For `CN(C)CCCN1c2ccccc2CCc2ccc(Cl)cc21` [CLOMIPRAMINE], the Ki stood at 0.038 µM.

A further test deals with T3, Neutrophil elastase (Homo sapiens, UniProt P08246).
T3 sequence (P08246 whole entry): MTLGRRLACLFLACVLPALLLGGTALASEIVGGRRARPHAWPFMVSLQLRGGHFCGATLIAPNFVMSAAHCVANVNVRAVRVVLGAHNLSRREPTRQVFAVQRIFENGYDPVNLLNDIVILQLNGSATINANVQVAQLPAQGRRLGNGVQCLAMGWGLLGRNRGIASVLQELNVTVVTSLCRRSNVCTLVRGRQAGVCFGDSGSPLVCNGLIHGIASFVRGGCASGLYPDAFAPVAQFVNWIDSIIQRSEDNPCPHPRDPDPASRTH
Assay: not given
In kind it is tissue-based.
Conditions: not given
For `CC(C)(O)c1ccccc1CC[C@@H](SCC1(CC(=O)O)CC1)c1cccc(/C=C/c2ccc3ccc(Cl)cc3n2)c1` [MONTELUKAST], the IC50 entry was “Not Active”.
Same read-out and setting: the value for `COc1ccc(CCN2CCC(Nc3nc4ccccc4n3Cc3ccc(F)cc3)CC2)cc1` [ASTEMIZOLE] was “Not Active”; that for `CN(C)CCCN1c2ccccc2CCc2ccc(Cl)cc21` [CLOMIPRAMINE] was “Not Active”.

For a further test, the target named is Insulin receptor (Rattus norvegicus, UniProt P15127).
Sequence of Insulin receptor (P15127 27-759 limits assumed): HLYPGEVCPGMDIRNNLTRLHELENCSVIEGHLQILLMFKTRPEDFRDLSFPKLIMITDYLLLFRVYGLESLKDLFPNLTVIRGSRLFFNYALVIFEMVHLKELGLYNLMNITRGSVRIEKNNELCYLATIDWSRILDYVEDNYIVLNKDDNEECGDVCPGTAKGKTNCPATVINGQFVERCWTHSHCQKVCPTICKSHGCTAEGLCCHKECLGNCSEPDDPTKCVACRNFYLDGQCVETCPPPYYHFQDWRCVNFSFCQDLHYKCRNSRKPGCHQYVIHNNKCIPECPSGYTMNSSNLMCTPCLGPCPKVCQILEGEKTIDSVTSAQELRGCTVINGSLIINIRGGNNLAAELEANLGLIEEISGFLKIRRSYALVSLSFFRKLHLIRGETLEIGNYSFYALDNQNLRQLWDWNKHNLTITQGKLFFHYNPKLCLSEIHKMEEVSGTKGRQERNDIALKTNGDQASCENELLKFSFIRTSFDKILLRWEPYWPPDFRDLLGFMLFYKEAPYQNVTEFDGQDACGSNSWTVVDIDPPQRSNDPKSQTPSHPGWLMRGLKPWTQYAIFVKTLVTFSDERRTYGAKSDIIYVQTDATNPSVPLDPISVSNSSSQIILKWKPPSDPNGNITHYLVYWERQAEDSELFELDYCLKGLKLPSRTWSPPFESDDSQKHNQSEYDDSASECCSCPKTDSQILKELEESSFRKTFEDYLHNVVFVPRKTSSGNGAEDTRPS
Sequence of Insulin receptor (P15127 764-1383 limits assumed): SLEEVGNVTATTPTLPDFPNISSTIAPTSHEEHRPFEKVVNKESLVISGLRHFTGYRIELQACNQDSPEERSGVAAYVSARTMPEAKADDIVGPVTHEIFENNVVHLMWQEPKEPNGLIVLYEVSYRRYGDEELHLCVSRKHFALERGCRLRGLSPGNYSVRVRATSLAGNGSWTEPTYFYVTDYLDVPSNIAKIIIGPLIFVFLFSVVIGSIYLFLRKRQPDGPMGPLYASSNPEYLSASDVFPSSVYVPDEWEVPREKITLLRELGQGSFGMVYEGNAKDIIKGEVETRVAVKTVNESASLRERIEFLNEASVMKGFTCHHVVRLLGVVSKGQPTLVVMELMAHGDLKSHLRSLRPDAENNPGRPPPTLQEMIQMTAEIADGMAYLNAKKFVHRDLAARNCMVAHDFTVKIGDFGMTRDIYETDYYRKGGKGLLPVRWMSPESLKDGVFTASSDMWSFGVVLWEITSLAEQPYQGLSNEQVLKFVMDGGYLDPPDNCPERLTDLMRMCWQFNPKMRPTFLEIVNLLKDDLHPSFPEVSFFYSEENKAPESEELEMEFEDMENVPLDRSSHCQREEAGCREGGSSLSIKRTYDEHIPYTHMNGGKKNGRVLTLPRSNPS
Assay: not given
In kind it is cell membranes, Wistar, Liver, Membrane.
Conditions: not given
Turning to `CC(C)(O)c1ccccc1CC[C@@H](SCC1(CC(=O)O)CC1)c1cccc(/C=C/c2ccc3ccc(Cl)cc3n2)c1` [MONTELUKAST], the IC50 result is listed as “Not Active”.
On the same count and under the same terms, the value for `COc1ccc(CCN2CCC(Nc3nc4ccccc4n3Cc3ccc(F)cc3)CC2)cc1` [ASTEMIZOLE] was “Not Active”.
For the compound `CN(C)CCCN1c2ccccc2CCc2ccc(Cl)cc21` [CLOMIPRAMINE], the IC50 result is recorded as “Not Active”.

The target of another test is T4, Muscarinic acetylcholine receptor M4 (Homo sapiens, UniProt P08173).
T4 sequence (P08173 whole entry): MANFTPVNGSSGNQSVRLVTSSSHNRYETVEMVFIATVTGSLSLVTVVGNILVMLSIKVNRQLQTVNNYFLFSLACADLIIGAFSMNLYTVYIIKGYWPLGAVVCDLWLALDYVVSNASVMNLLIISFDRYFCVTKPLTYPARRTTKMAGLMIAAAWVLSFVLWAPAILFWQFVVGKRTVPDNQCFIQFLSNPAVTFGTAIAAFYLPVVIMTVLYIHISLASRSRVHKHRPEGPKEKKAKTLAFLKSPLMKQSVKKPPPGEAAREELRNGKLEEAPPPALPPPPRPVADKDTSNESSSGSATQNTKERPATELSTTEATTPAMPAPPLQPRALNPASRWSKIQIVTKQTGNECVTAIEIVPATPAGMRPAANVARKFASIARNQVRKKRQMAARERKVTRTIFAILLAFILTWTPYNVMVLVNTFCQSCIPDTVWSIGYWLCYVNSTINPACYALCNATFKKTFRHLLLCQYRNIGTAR
Assay: not given
In kind it is cell membranes, CHO-K1, Membrane. The note with it: cho-k1.
Regarding `CC(C)(O)c1ccccc1CC[C@@H](SCC1(CC(=O)O)CC1)c1cccc(/C=C/c2ccc3ccc(Cl)cc3n2)c1` [MONTELUKAST], the IC50 result was “Not Active”.

The same test, now with this note: read-out: IC50.
For `COc1ccc(CCN2CCC(Nc3nc4ccccc4n3Cc3ccc(F)cc3)CC2)cc1` [ASTEMIZOLE], the IC50 worked out at 1.86 µM.
As for `CN(C)CCCN1c2ccccc2CCc2ccc(Cl)cc21` [CLOMIPRAMINE], the IC50 came out at 0.091 µM.

The same test, now with this note: read-out: Ki.
As for `COc1ccc(CCN2CCC(Nc3nc4ccccc4n3Cc3ccc(F)cc3)CC2)cc1` [ASTEMIZOLE], the Ki turned out to be 0.259 µM.
Still for that read-out and setting: the same measure for `CN(C)CCCN1c2ccccc2CCc2ccc(Cl)cc21` [CLOMIPRAMINE]: 0.013 µM.
